Test results: patent US11986471B2, “Compounds and methods of use” (Tango Therapeutics, Inc., priority 2018, dated 2024)

What was measured:
HAP1 MTAP-intact = test: SDMA in-cell western assay, HAP1 MTAP-intact cell line; assay type: cell-based; details: Homo sapiens
Method in brief: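 Cells from two matched HAP1 lines, MTAP-null and MTAP-expressing at endogenous levels, are treated with compound. SDMA is then quantified by in-cell western and an IC50 is calculated for each line.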

PRMT5 [1] = target: T1, PRMT5 (Homo sapiens, UniProt O14744); test: PRMT5 IC50 assay in the presence of SAM as cofactor; assay type: biochemical
T1 construct: purchased Viva (custom protein)
T1 sequence (O14744 whole entry): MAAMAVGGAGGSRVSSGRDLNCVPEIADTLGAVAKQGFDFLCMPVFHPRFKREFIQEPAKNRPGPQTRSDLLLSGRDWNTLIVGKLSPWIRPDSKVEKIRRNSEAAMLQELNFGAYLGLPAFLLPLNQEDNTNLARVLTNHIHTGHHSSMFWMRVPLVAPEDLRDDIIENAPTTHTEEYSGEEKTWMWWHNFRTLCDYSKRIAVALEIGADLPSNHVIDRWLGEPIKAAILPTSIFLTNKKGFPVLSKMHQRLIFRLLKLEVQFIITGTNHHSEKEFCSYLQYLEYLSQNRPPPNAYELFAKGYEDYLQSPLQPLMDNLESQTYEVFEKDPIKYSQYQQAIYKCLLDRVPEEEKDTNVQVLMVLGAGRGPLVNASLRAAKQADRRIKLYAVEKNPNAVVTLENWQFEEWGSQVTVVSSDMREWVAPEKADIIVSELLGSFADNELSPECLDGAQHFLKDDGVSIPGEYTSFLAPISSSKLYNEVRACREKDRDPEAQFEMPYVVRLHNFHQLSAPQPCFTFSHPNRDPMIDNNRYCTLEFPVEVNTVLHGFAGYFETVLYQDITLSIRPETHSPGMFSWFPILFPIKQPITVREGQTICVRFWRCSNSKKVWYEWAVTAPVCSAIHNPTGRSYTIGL
T1 sequence (Q9BQA1 whole entry partner): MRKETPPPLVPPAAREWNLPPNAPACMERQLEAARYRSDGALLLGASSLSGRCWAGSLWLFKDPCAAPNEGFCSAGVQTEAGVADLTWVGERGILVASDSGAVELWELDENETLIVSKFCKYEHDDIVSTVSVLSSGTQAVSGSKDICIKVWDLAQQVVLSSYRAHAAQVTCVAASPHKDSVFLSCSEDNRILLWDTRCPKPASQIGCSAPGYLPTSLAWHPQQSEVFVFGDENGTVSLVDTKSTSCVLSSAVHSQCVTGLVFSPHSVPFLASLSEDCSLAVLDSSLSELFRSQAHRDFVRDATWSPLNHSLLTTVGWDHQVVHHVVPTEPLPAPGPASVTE
Method in brief: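 Potency against PRMT5 is compared across cofactor states, where IC50 equals Ki×1.5 with SAM present and Ki×13.5 with MTA present.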

HAP1 MTAP-deleted = test: SDMA in-cell western assay, HAP1 MTAP-deleted cell line; assay type: cell-based; details: for IC50: Homo sapiens, HAP1 MTAP-deleted cell line; for MTAP Intact/Deleted Ratio: IC50 ratio HAP1 MTAP-intact / HAP1 MTAP-deleted
Method in brief: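 MTAP-null HAP1 cells, the deleted member of an isogenic pair with endogenously MTAP-expressing HAP1, are treated with compound. SDMA is then quantified by in-cell western and an IC50 is calculated.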

PRMT5 [2] = target: T1, PRMT5; test: PRMT5 IC50 assay with no cofactor; assay type: biochemical
Method in brief: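 Three cofactor conditions are run: SAM-bound, MTA-bound and cofactor-free enzyme. IC50 is read from each; for the SAM and MTA arms it is divided by 1.5 and 13.5 respectively to give Ki.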

PRMT5 [3] = target: T1, PRMT5; test: PRMT5 IC50 assay in the presence of MTA as cofactor; assay type: biochemical; details: for IC50: PRMT5, MTA as cofactor; for SAM/MTA Ratio: ratio between the Ki in the presence of SAM and the Ki in the presence of MTA
Method in brief: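 Ki conversion: SAM arm, Ki=IC50/1.5; MTA arm, Ki=IC50/13.5. No-cofactor arm reported as IC50 only. Selectivity expressed as Ki(SAM)/Ki(MTA).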

Row | SMILES | IC50 (HAP1 MTAP-intact) | IC50 (PRMT5 [1]) | IC50 (HAP1 MTAP-deleted) | IC50 (PRMT5 [2]) | IC50 (PRMT5 [3]) | MTAP Intact/Deleted Ratio (HAP1 MTAP-deleted) | SAM/MTA Ratio (PRMT5 [3])
1 | Cc1ncoc1COc1ccc2c(c1C)CCN(C[C@@H](O)CNC(=O)c1cc(NC3COC3)nc(N3CCN(C)CC3)n1)C2 [Compound 456, N-[(2S)-2-hydroxy-3-{5-methyl-6-[(4-methyl-1,3-oxazol-5-yl)methoxy]-1,2,3,4-tetrahydroisoquinolin-2-yl}propyl]-2-(4-methylpiperazin-1-yl)-6-[(oxetan-3-yl)amino]pyrimidine-4-carboxamide] | ≥ 10000 nM | 50 to 500 nM | 1000 to 10000 nM | ≥ 5000 nM | 50 to 500 nM | C* (an IC50 ratio of less than 3 fold between the IC50 in the HAP1 MTAP-intact cell line and the HAP1 MTAP-deleted cell line) | A (a Ki ratio greater than or equal to 10 fold between the Ki in the presence of SAM and the Ki in the presence of MTA)
2 | CC(C)C(=O)N1CCC(Nc2cc(C(=O)NC[C@H](O)CN3CCc4cc(OCc5cnco5)ccc4C3)ccn2)CC1 [Compound 458, N-[(2S)-2-hydroxy-3-[6-(oxazol-5-ylmethoxy)-3,4-dihydro-1H-isoquinolin-2-yl]propyl]-2-[[1-(2-methylpropanoyl)-4-piperidyl]amino]pyridine-4-carboxamide] | 1000 to 10000 nM | 50 to 500 nM | < 1000 nM | 500 to 5000 nM | 50 to 500 nM | C* (an IC50 ratio of less than 3 fold between the IC50 in the HAP1 MTAP-intact cell line and the HAP1 MTAP-deleted cell line) | A (a Ki ratio greater than or equal to 10 fold between the Ki in the presence of SAM and the Ki in the presence of MTA)
3 | Cc1ncoc1COc1ccc2c(c1C)CCN(C[C@@H](O)CNC(=O)c1cc(NC3CCC3)nc(N3CCN(C(=O)C(C)C)CC3)c1)C2 [Compound 459, 2-(cyclobutylamino)-N-[(2S)-2-hydroxy-3-{5-methyl-6-[(4-methyl-1,3-oxazol-5-yl)methoxy]-1,2,3,4-tetrahydroisoquinolin-2-yl}propyl]-6-[4-(2-methylpropanoyl)piperazin-1-yl]pyridine-4-carboxamide] | 1000 to 10000 nM | 50 to 500 nM | < 1000 nM | 500 to 5000 nM | 50 to 500 nM | A* (an IC50 ratio greater than or equal to 10 fold between the IC50 in the HAP1 MTAP-intact cell line and the HAP1 MTAP-deleted cell line) | A (a Ki ratio greater than or equal to 10 fold between the Ki in the presence of SAM and the Ki in the presence of MTA)
4 | CCC(=O)N1CCC(Nc2cc(C(=O)NC[C@H](O)CN3CCc4cc(OCc5cnco5)ccc4C3)ccn2)CC1 [Compound 460, N-[(2S)-2-hydroxy-3-[6-(oxazol-5-ylmethoxy)-3,4-dihydro-1H-isoquinolin-2-yl]propyl]-2-[(1-propanoyl-4-piperidyl)amino]pyridine-4-carboxamide] | 1000 to 10000 nM | 50 to 500 nM | < 1000 nM | 500 to 5000 nM | 50 to 500 nM | B* (an IC50 ratio greater than or equal to 3 fold but lower than 10 fold between the IC50 in the HAP1 MTAP-intact cell line and the HAP1 MTAP-deleted cell line) | A (a Ki ratio greater than or equal to 10 fold between the Ki in the presence of SAM and the Ki in the presence of MTA)
5 | Cc1ncoc1COc1ccc2c(c1C)CCN(C[C@@H](O)CNC(=O)c1cc(NC3CCC3)nc(N3CCOCC3)c1)C2 [Compound 461, 2-(cyclobutylamino)-N-[(2S)-2-hydroxy-3-{5-methyl-6-[(4-methyl-1,3-oxazol-5-yl)methoxy]-1,2,3,4-tetrahydroisoquinolin-2-yl}propyl]-6-(morpholin-4-yl)pyridine-4-carboxamide] | ≥ 10000 nM | 50 to 500 nM | 1000 to 10000 nM | ≥ 5000 nM | 50 to 500 nM | B* (an IC50 ratio greater than or equal to 3 fold but lower than 10 fold between the IC50 in the HAP1 MTAP-intact cell line and the HAP1 MTAP-deleted cell line) | 
6 | CC(C)N1CCN(c2cc(C(=O)NC[C@H](O)CN3CCc4cc(OCc5cnco5)ccc4C3)cc(NC3CCC3)n2)CC1 [Compound 462, (S)-2-(cyclobutylamino)-N-(2-hydroxy-3-(6-(oxazol-5-ylmethoxy)-3,4-dihydroisoquinolin-2(1H)-yl)propyl)-6-(4-isopropylpiperazin-1-yl)isonicotinamide] | ≥ 10000 nM | 50 to 500 nM | ≥ 10000 nM | 500 to 5000 nM | 50 to 500 nM | C* (an IC50 ratio of less than 3 fold between the IC50 in the HAP1 MTAP-intact cell line and the HAP1 MTAP-deleted cell line) | A (a Ki ratio greater than or equal to 10 fold between the Ki in the presence of SAM and the Ki in the presence of MTA)
7 | O=C(NC[C@H](O)CN1CCc2c(ccc(OCc3cnco3)c2Cl)C1)c1cc(NC2CCC2)nc(N2CCNCC2)c1 [Compound 464, (S)—N-(3-(5-chloro-6-(oxazol-5-ylmethoxy)-3,4-dihydroisoquinolin-2(1H)-yl)-2-hydroxypropyl)-2-(cyclobutylamino)-6-(piperazin-1-yl)isonicotinamide] | ≥ 10000 nM | 50 to 500 nM | ≥ 10000 nM | 500 to 5000 nM | 50 to 500 nM | C* (an IC50 ratio of less than 3 fold between the IC50 in the HAP1 MTAP-intact cell line and the HAP1 MTAP-deleted cell line) | A (a Ki ratio greater than or equal to 10 fold between the Ki in the presence of SAM and the Ki in the presence of MTA)
8 | CCCN(C)c1nc(NC2COC2)cc(C(=O)NC[C@H](O)CN2CCc3c(ccc(OCc4ocnc4C)c3C)C2)n1 [Compound 465, N-[(2K)-2-hydroxy-3-{5-methyl-6-[(4-methyl-1,3-oxazol-5-yl)methoxy]-1,2,3,4-tetrahydroisoquinolin-2-yl}propyl]-2-[methyl(propyl)amino]-6-[(oxetan-3-yl)amino]pyrimidine-4-carboxamide] | ≥ 10000 nM | 50 to 500 nM | 1000 to 10000 nM | ≥ 5000 nM | 50 to 500 nM | B* (an IC50 ratio greater than or equal to 3 fold but lower than 10 fold between the IC50 in the HAP1 MTAP-intact cell line and the HAP1 MTAP-deleted cell line) | A (a Ki ratio greater than or equal to 10 fold between the Ki in the presence of SAM and the Ki in the presence of MTA)

Second part, led by results:

Row | IC50 (HAP1 MTAP-intact) | IC50 (PRMT5 [1]) | IC50 (HAP1 MTAP-deleted) | IC50 (PRMT5 [2]) | IC50 (PRMT5 [3]) | SMILES | MTAP Intact/Deleted Ratio (HAP1 MTAP-deleted) | SAM/MTA Ratio (PRMT5 [3])
9 | < 1000 nM | 50 to 500 nM | < 1000 nM | 50 to 500 nM | 50 to 500 nM | Cc1ncoc1COc1ccc2c(c1)CCN(C[C@@H](O)CNC(=O)c1cc(NC3CCC3)nc(N3CCN(C(=O)C4CC4)CC3)c1)C2 [Compound 455, 2-(cyclobutylamino)-6-(4-cvclopropanecarbonylpiperazin-1-yl)-N-[(2S)-2-hydroxy-3-{6-[(4-methyl-1,3-oxazol-5-yl)methoxy]-1,2,3,4-tetrahydroisoquinolin-2-yl}propyl]pyridine-4-carboxamide] | B* (an IC50 ratio greater than or equal to 3 fold but lower than 10 fold between the IC50 in the HAP1 MTAP-intact cell line and the HAP1 MTAP-deleted cell line) | A (a Ki ratio greater than or equal to 10 fold between the Ki in the presence of SAM and the Ki in the presence of MTA)
10 | < 1000 nM | 50 to 500 nM | < 1000 nM | 500 to 5000 nM | 50 to 500 nM | CCN(C)c1nc(NC2COC2)cc(C(=O)NC[C@H](O)CN2CCc3cc(OCc4ocnc4C)ccc3C2)n1 [Compound 457, 2-[ethyl(methyl)amino]-N-[(2S)-2-hydroxy-3-{6-[(4-methyl-1,3-oxazol-5-yl)methoxy]-1,2,3,4-tetrahydroisoquinolin-2-yl}propyl]-6-[(oxetan-3-yl)amino]pyrimidine-4-carboxamide] | C* (an IC50 ratio of less than 3 fold between the IC50 in the HAP1 MTAP-intact cell line and the HAP1 MTAP-deleted cell line) | A (a Ki ratio greater than or equal to 10 fold between the Ki in the presence of SAM and the Ki in the presence of MTA)
11 | < 1000 nM | 50 to 500 nM | < 1000 nM | 500 to 5000 nM | 50 to 500 nM | Cc1ncoc1COc1ccc2c(c1)CCN(C[C@@H](O)CNC(=O)c1cc(NC3CCC3)nc(N3CCN(C(=O)C(C)C)CC3)c1)C2 [Compound 463, 2-(cyclobutylamino)-N-[(2S)-2-hydroxy-3-{6-[(4-methyl-1,3-oxazol-5-yl)methoxy]-1,2,3,4-tetrahydroisoquinolin-2-yl}propyl]-6-[4-(2-methylpropanoyl)piperazin-1-yl]pyridine-4-carboxamide] | B* (an IC50 ratio greater than or equal to 3 fold but lower than 10 fold between the IC50 in the HAP1 MTAP-intact cell line and the HAP1 MTAP-deleted cell line) | A (a Ki ratio greater than or equal to 10 fold between the Ki in the presence of SAM and the Ki in the presence of MTA)
12 | < 1000 nM | 50 to 500 nM | < 1000 nM | 500 to 5000 nM | 50 to 500 nM | CC(C)C(=O)N1CCN(c2cc(C(=O)NC[C@H](O)CN3CCc4c(ccc(OCc5cnco5)c4Cl)C3)cc(NC3CCC3)n2)CC1 [Compound 466] | C* (an IC50 ratio of less than 3 fold between the IC50 in the HAP1 MTAP-intact cell line and the HAP1 MTAP-deleted cell line) | A (a Ki ratio greater than or equal to 10 fold between the Ki in the presence of SAM and the Ki in the presence of MTA)
